# Reference: patent US10871495B2, “Biomarkers of polycystic kidney disease and uses thereof” (Genzyme Corporation, priority 2014, dated 2020)
# What was measured:
# jck mice [1] = test: Immunoblot of marker levels in urinary exosomes of jck mice treated with GCS inhibitor; format: in vivo, mouse; details: jck mice treated continuously for 5 weeks (0.225% in diet), vs control mice, FIG. 3
# Experimental: (§1) C57BL/6J jck/+ mice were maintained for crossing. The cystic jck/jck mice were genotyped as previously described (Smith et al., J. Am. Soc. Nephrol. 17:2821-2831, 2006). Pcy mice were maintained on a CD1 genetic background as previously described (Takahashi et al., J. Am. Soc. Nephrol. 1:980-989, 1991). GCS inhibitor C9 was administered ad libitum to jck and pcy mice by mixing in powdered 5053 diet at 0.225% from 26 to 64 days and 4 to 30 weeks of age, respectively (as described in Natoli et al., Nature Medicine 16:788-792, 2010). Urine samples from the mice were collected in metabolic cages over a 24-hour period and stored at −80° C.
# (§2) Exosomes were isolated from pooled urine samples (animal studies) or mid void urine samples (human samples) by ultracentrifugation at 100,000 g for 2 hours. Following ultracentrifugation, the exosome pellet was resuspended in 2.5× Laemmli Buffer (5×: 15% SDS, 0.575 M sucrose, 0.325 M Tris, pH 6.8, 5% beta-mercapto ethanol, and 0.002% bromophenol blue) for sodium dodecyl sulfate-polyacrylamide gel electrophoresis (SDS-PAGE) and immunoblot analysis.
# (§3) Kidney samples were homogenized on ice in radioimmunoprecipitation assay (RIPA) buffer (Boston BioProducts, Ashland, Mass.) containing 1 mM dithiothreitol, 5 mM ethylenediaminetetraacetic acid (EDTA), 2 mM NaF, 1 mM Na3VO4 (all supplied by Sigma-Aldrich, St. Louis, Mo.), Pefabloc SC and Complete protease inhibitor cocktail (both from Roche, Basel, Switzerland). Protein concentration was determined by BCA protein assay (Pierce, Rockford, Ill.). The samples were loaded onto 4-12% NuPage Bis-Tris gels following the manufacturer's protocols (Invitrogen, Grand Island, N.Y.). Electrophoretic transfer of the proteins in the gel onto nitrocellulose was performed in a semi-dry apparatus according to the manufacturer's instructions (Invitrogen). After electrophoretic transfer, the resulting membranes were blocked with 5% non-fat milk in tris-buffered saline (TBS) containing 0.1% Tween-20 and incubated with primary antibodies overnight at 4° C. The primary antibodies were detected with horseradish peroxidase-labeled secondary antibodies at a 1:10,000 dilution (Promega, Fitchburg, Wis.). […] The primary antibodies to the following antigenes were used: PCNA (DAKO, Carpinteria, Calif.), cyclin D1, S6, phospho-S6 (Ser235/236), phospho-AKT (ser473), total ERK, phospho-ERK (Thr202/Tyr204) (Cell Signaling Technology, Danvers, Mass.), cyclin D3, total AKT, caspase-2, RBBP (BD Biosciences, Billerica, Mass.), MEK1 (Upstate Biotechnology, Lake Placid, N.Y.), aquaporin-2 (Millipore, Billerica, Mass.) β-actin, TSG101 (Abcam, Cambridge, Mass.), ALIX (Santa Cruz Biotechnology, Dallas, Tex.), and GAPDH (US Biological, Salem, Mass.).
# A further set of experiments was performed to determine whether the same markers could be used to determine the efficacy of a treatment for PKD in a patient having PKD. In these experiments, urine samples from jck mice that were treated with GCS inhibitor C9 continuously for 5 weeks were gathered (FIG. 2) and the levels of each biomarker were analyzed in urine exosomes and kidney lysate samples. […] The data in FIG. 3 show, e.g., that the levels of PCNA, cyclin D3, RBBP, MEK, Erk, phosphorylated ERK, Akt, phosphorylated Akt, S6, phosphorylated S6, and caspase-2 are decreased in kidney lysate samples from jck mice treated with a GCS inhibitor as compared to the levels in kidney lysate samples from control mice. […]
# pcy mice [2] = test: Immunoblot of marker levels in kidney lysate of pcy mice treated with GCS inhibitor; format: in vivo, mouse; details: pcy mice treated for thirty weeks (0.225% in diet), vs untreated mice, FIG. 4
# Experimental: as §1, §3
# A further set of experiments was performed to validate the use of the markers described herein for both diagnosing and determining the efficacy of treatment in human patients having PKD. In these experiments, another mouse model of PKD, pcy mice were used. The pcy mouse model is a slowly progressive adult form of PKD characterized by cyst formation and fibrosis. […] In these experiments, pcy mice were left untreated or were treated with GCS inhibitor C9 for thirty weeks, and then the expression levels of the markers described herein were determined in both kidney lysate and urine exosome samples. The data from these experiments show the levels of the markers were decreased in both the kidney lysate samples and the urine exosome samples from pcy mice treated with GCS inhibitor C9 as compared to the corresponding levels in the untreated mice (FIG. 4). […] The data in FIG. 4 also show, for example, that the levels of PCNA, phosphorylated Erk, phosphorylated Akt, and S6 are decreased in urinary exosomes from pcy mice treated with GCS inhibitor C9 as compared to the untreated mice.
# pcy mice [3] = test: Immunoblot of marker levels in urinary exosomes of pcy mice treated with GCS inhibitor; format: in vivo, mouse; details: pcy mice treated for thirty weeks (0.225% in diet), vs untreated mice, FIG. 4
# Experimental: as §1, §2
# Kidney samples were homogenized on ice in radioimmunoprecipitation assay (RIPA) buffer (Boston BioProducts, Ashland, Mass.) containing 1 mM dithiothreitol, 5 mM ethylenediaminetetraacetic acid (EDTA), 2 mM NaF, 1 mM Na3VO4 (all supplied by Sigma-Aldrich, St. Louis, Mo.), Pefabloc SC and Complete protease inhibitor cocktail (both from Roche, Basel, Switzerland). Protein concentration was determined by BCA protein assay (Pierce, Rockford, Ill.). The samples were loaded onto 4-12% NuPage Bis-Tris gels following the manufacturer's protocols (Invitrogen, Grand Island, N.Y.). Electrophoretic transfer of the proteins in the gel onto nitrocellulose was performed in a semi-dry apparatus according to the manufacturer's instructions (Invitrogen). After electrophoretic transfer, the resulting membranes were blocked with 5% non-fat milk in tris-buffered saline (TBS) containing 0.1% Tween-20 and incubated with primary antibodies overnight at 4° C. The primary antibodies were detected with horseradish peroxidase-labeled secondary antibodies at a 1:10,000 dilution (Promega, Fitchburg, Wis.). […]
# A further set of experiments was performed to validate the use of the markers described herein for both diagnosing and determining the efficacy of treatment in human patients having PKD. […] In these experiments, pcy mice were left untreated or were treated with GCS inhibitor C9 for thirty weeks, and then the expression levels of the markers described herein were determined in both kidney lysate and urine exosome samples. […]
# pcy mice [4] = details: Natoli et al., Nature Medicine 16:788-792, 2010; cited from earlier work
# jck mice [5] = test: Immunoblot of marker levels in kidney lysate of jck mice treated with GCS inhibitor; format: in vivo, mouse; details: jck mice treated continuously for 5 weeks (0.225% in diet), vs control mice, FIG. 3
# Experimental: as §1, §3
# A further set of experiments was performed to determine whether the same markers could be used to determine the efficacy of a treatment for PKD in a patient having PKD. In these experiments, urine samples from jck mice that were treated with GCS inhibitor C9 continuously for 5 weeks were gathered (FIG. 2) and the levels of each biomarker were analyzed in urine exosomes and kidney lysate samples. […] The data in FIG. 3 show, e.g., that the levels of PCNA, cyclin D3, RBBP, MEK, Erk, phosphorylated ERK, Akt, phosphorylated Akt, S6, phosphorylated S6, and caspase-2 are decreased in kidney lysate samples from jck mice treated with a GCS inhibitor as compared to the levels in kidney lysate samples from control mice. The data in FIG. 3 also show, e.g., that the levels of PCNA, cyclin D1, cyclin D3, MEK, and S6 are decreased in urinary exosomes from jck mice treated with a GCS inhibitor as compared to the levels in urinary exosomes from control mice.
smiles,measurement,setting,value
CCCCCCCCC(=O)N[C@H](CN1CCCC1)[C@H](O)c1ccc2c(c1)OCCO2 [GCS inhibitor C9],level of MEK,jck mice [1],decreased
same,level of PCNA,jck mice [1],decreased
same,level of S6,jck mice [1],decreased
same,level of cyclin D1,jck mice [1],decreased
same,level of cyclin D3,jck mice [1],decreased
same,level of PCNA,pcy mice [2],decreased
same,level of S6,pcy mice [2],decreased
same,level of phosphorylated Akt,pcy mice [2],decreased
same,level of phosphorylated Erk,pcy mice [2],decreased
same,level of phosphorylated S6,pcy mice [2],decreased
same,level of PCNA,pcy mice [3],decreased
same,level of S6,pcy mice [3],decreased
same,level of phosphorylated Akt,pcy mice [3],decreased
same,level of phosphorylated Erk,pcy mice [3],decreased
same,cystogenesis,pcy mice [4],effective inhibition
same,fibrogenesis,pcy mice [4],effective inhibition
same,level of Akt,jck mice [5],decreased
same,level of Erk,jck mice [5],decreased
same,level of MEK,jck mice [5],decreased
same,level of PCNA,jck mice [5],decreased
same,level of RBBP,jck mice [5],decreased
same,level of S6,jck mice [5],decreased
same,level of caspase-2,jck mice [5],decreased
same,level of cyclin D3,jck mice [5],decreased
same,level of phosphorylated Akt,jck mice [5],decreased
same,level of phosphorylated ERK,jck mice [5],decreased
same,level of phosphorylated S6,jck mice [5],decreased
